Assay [1] has as its system L6-myotubes. Description: Measurement of intracellular cAMP levels (alpha screen cAMP kit) in differentiated cells, compared to isoproterenol. In kind it is cell-based. The conditions noted are these: 0.25 h, compound at 10 μM vs isoproterenol at 10 μM, 15 min stimulation, read-out: Biological example 2: intracellular cAMP level activity compared to that of isoproterenol. Here is the method: (§1) L6-myoblasts were grown in Dulbecco's Modified Eagle's Medium (DMEM) containing 1 g/L glucose supplemented with 10% fetal bovine serum, 2 mM L-Glutamine, 50 U/mL penicillin, […] streptomycin and 10 mM HEPES. Cells were plated at 1×10^5 cells per mL in 24-well plates. After reaching 90% confluence the cells were grown in medium containing 2% FBS for 7 days where upon cells differentiated into myotubes.
Differentiated cells were serum-starved overnight and stimulated with an agonist, final concentration 1×10^−5 M, for 15 min in stimulation buffer (HBSS supplemented with 1% BSA, 5 mM HEPES and 1 mM IBMX, pH 7.4). The medium was aspirated and 100 μL of 95% EtOH was added to each well of the 24-well plate and cells were kept at −20° C. overnight. The EtOH was allowed to evaporate and 500 μL of lysis buffer (1% BSA, 5 mM HEPES and 0.3% Tween-20, pH 7.4) was added to each well. The plate was kept at −80° C. for 30 min and then at −20° C. until the day of detection when the samples were thawed. Intracellular cAMP levels were detected using an alpha screen cAMP kit (6760635D from Perkin Elmer). The activity for each compound is compared to that of isoproterenol.

The subject of assay [2] is L6-myotubes. Description: Glucose uptake (3H-2-deoxyglucose) in differentiated L6-myotubes, compared to isoproterenol. The conditions noted are these: compound at 10 μM vs isoproterenol at 10 μM, read-out: Biological example 1: glucose uptake activity compared to that of isoproterenol. In kind it is cell-based. How it is done: as §1
Differentiated L6-myotubes were serum-starved overnight in medium containing 0.5% fatty-acid free BSA and stimulated with an agonist, with a final concentration of 1×10^−5 M. After 1 h 40 min the cells were washed with warm glucose free medium or PBS twice and another portion of agonist was added to the glucose free medium. After 20 min the cells were exposed to 50 nM ^3H-2-deoxyglucose for another 10 min before washed in ice cold glucose free medium or PBS three times and lysed in 400 μL/well 0.2 M NaOH for 1 h at 60° C. The cell lysate was mixed with 4 mL scintillation buffer (Emulsifier Safe, Perkin Elmer) and the radioactivity was detected in a p-counter (Tri-Carb 4810TR, Perkin Elmer). The activity for each compound is compared to that of isoproterenol.

Structures can show the parent of a compound that is named as a salt.

For the compound `CC(C)(C[C@@H]1CCCN(C(=O)OC(C)(C)C)C1)NC[C@H](O)c1cccc(F)c1` [Example 1, tert-Butyl (S)-3-(2-(((R)-2-(3-fluorophenyl)-2-hydroxyethyl)amino)-2-methypropyl)piperidine-1-carboxylate acetate], the Emax at 10 µM in the assay with L6-myotubes [1] and in the assay with L6-myotubes [2] was above 75% each time.

For the compound `CC(C)(C[C@@H]1CCCNC1)NC[C@H](O)c1cccc(F)c1` [Example 2, (R)-1-(3-Fluorophenyl)-2-((2-methyl-1-((S)-piperidin-3-yl)propan-2-yl)amino)ethan-1-ol], the Emax at 10 µM in the assay with L6-myotubes [1] is 25 to 50%; in the assay with L6-myotubes [2], above 75%. In the case of `CC(=O)N1CCC[C@@H](CC(C)(C)NC[C@H](O)c2cccc(F)c2)C1` [Example 3, 1-((S)-3-(2-(((R)-2-(3-Fluorophenyl)-2-hydroxyethyl)amino)-2-methylpropyl)piperidin-1-yl)ethan-1-one hydrochloride], the Emax at 10 µM in the assay on L6-myotubes [1] is 50 to 75%; in the assay with L6-myotubes [2], above 75%. As for `CC(C)(C[C@@H]1CCCN(S(C)(=O)=O)C1)NC[C@H](O)c1cccc(F)c1` [Example 4, (R)-1-(3-Fluorophenyl)-2-((2-methyl-1-((S)-1-(methylsulfonyl)-piperidin-3-yl)propan-2-yl)amino)ethan-1-ol hydrochloride], the Emax at 10 µM is 25 to 50% in the assay on L6-myotubes [1] and 50 to 75% in the assay on L6-myotubes [2]. With `CC(C)(C[C@@H]1CCCN(C(=O)C(C)(C)C)C1)NC[C@H](O)c1cccc(F)c1` [Example 5, 1-((S)-3-(2-(((R)-2-(3-Fluorophenyl)-2-hydroxyethyl)amino)-2-methylpropyl)piperidin-1-yl)-2,2-dimethylpropan-1-one], the Emax at 10 µM in the assay on L6-myotubes [1] was below 25%; with L6-myotubes [2], 50 to 75%. In the same order, the values of `CC(C)(C[C@@H]1CCCN(C(=O)C(F)(F)F)C1)NC[C@H](O)c1cccc(F)c1` [Example 6, 2,2,2-Trifluoro-1-((S)-3-(2-(((R)-2-(3-fluorophenyl)-2-hydroxyethyl)-amino)-2-methylpropyl)piperidin-1-yl)ethan-1-one] are below 25% and above 75%. Consider `COC(=O)N1CCC[C@@H](CC(C)(C)NC[C@H](O)c2cccc(F)c2)C1` [Example 7, Methyl (S)-3-(2-(((R)-2-(3-fluorophenyl)-2-hydroxyethyl)amino)-2-methylpropyl)piperidine-1-carboxylate], for which the Emax at 10 µM in the assay on L6-myotubes [1] is 50 to 75%; in the assay on L6-myotubes [2] it was above 75%. Regarding `CN(C)C(=O)N1CCC[C@@H](CC(C)(C)NC[C@H](O)c2cccc(F)c2)C1` [Example 8, (S)-3-(2-(((R)-2-(3-Fluorophenyl)-2-hydroxyethyl)amino)-2-methyl-propyl)-N,N-dimethylpiperidine-1-carboxamide], the Emax at 10 µM is below 25% in the assay with L6-myotubes [1] and above 75% in the assay with L6-myotubes [2]. Taken in the same sequence, the figures for `CNC(=O)N1CCC[C@@H](CC(C)(C)NC[C@H](O)c2cccc(F)c2)C1` [Example 9, (S)-3-(2-(((R)-2-(3-Fluorophenyl)-2-hydroxyethyl)amino)-2-methyl-propyl)-N-methylpiperidine-1-carboxamide hydrochloride] were 25 to 50% and above 75%. With `CN1C[C@@H](CC(C)(C)NC[C@H](O)c2cccc(F)c2)CCC1=O` [Example 79, (R)-5-(2-(((R)-2-(3-Fluorophenyl)-2-hydroxyethyl)amino)-2-methyl-propyl)-1-methylpiperidin-2-one hydrochloride], the Emax at 10 µM with L6-myotubes [2] is above 75%. For `CC(=O)NC1(C)CCN(CC(C)(C)NC[C@H](O)c2cccc(F)c2)CC1` [Example 87, (R)—N-(1-(2-((2-(3-Fluorophenyl)-2-hydroxyethyl)amino)-2-methyl-propyl)-4-methylpiperidin-4-yl)acetamide], in the assay on L6-myotubes [2], the Emax at 10 µM lay within 50 to 75%. On to `CC(C)(CN1CCC(C)(NS(C)(=O)=O)CC1)NC[C@H](O)c1cccc(F)c1` [Example 88, (R)—N-(1-(2-((2-(3-Fluorophenyl)-2-hydroxyethyl)amino)-2-methyl-propyl)-4-methylpiperidin-4-yl)methanesulfonamide dihydrochloride], for which, in the assay on L6-myotubes [2], the Emax at 10 µM lay in the range of 50 to 75%.

The record behind these values is US20260242335A1, “HETEROCYCLOALKYL BETA-HYDROXY ALKYL AMINES FOR USE IN THE TREATMENT OF HYPERGLYCAEMIA AND DISORDERS CHARACTERISED BY HYPERGLYCAEMIA” (ATROGI AB, priority 2023, published 2026).
